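Tested at 5 concentrations; 48 h exposure; 96-well plates; endpoints linearly interpolated, else capped at highest concentration. TGI marks complete inhibition of growth.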
What was measured:
Assay in all cases: NCI tumour cell line growth inhibition, 48 h
[1] = tested on: M14 melanoma
[2] = tested on: LXFL 529 NSCLC
[3] = tested on: HS 578T breast
[4] = tested on: MDA-MB-435
[5] = tested on: T-47D breast
[6] = tested on: PC-3 prostate
[7] = tested on: DU-145 prostate
[8] = tested on: MDA-N
[9] = tested on: BT-549 breast
[10] = tested on: RXF-631 renal

| Compound | TGI [1] [µM] | TGI [2] [µM] | TGI [3] [µM] | TGI [4] [µM] | TGI [5] [µM] | TGI [6] [µM] | TGI [7] [µM] | TGI [8] [µM] | TGI [9] [µM] | TGI [10] [µM] |
| --- | --- | --- | --- | --- | --- | --- | --- | --- | --- | --- |
| N#Cc1ccccc1NC(=O)C(=O)C(C(=O)c1ccccc1F)C1OC(=O)c2ccccc21 (centres undefined) | > 100 | > 100 |  |  |  |  |  |  |  |  |
| C/C(=C1\N=C(c2ccccc2)OC1=O)c1ccccc1 | > 100 |  | > 100 | > 100 | > 100 | > 100 | > 100 |  |  |  |
| COC1/C=C/C(C)C(O)CC(O)/C=C/C(C)C(C(C)C(OC)C(C)CCC(=O)C(C)C(C/C=C/N(C)C=O)OC)OC(=O)/C=C/C=C(\C)CC(OC)CC2=CC(=O)O[C@@H](C(C)C(OC)C1)[C@H]2O (some centres undefined) | < 0.005 |  | 0.0493 | 0.906 | 1.28 | 0.131 | 4.09 | 0.136 | 1.5 |  |
| COc1ccccc1NC(=O)C(=O)C(C(=O)c1ccccc1F)C1OC(=O)c2ccccc21 (centres undefined) | > 100 | > 100 |  |  |  |  |  |  |  | 67.8 |

From PubChem BioAssay (NCI)
